Experimental data reported in publication PMC10004634 (PLOS ONE, 2023).
Like-named read-outs stand apart in the source and are kept apart here.

Assays:
Assay in all cases: biochemical
Set-up in all cases: KINOMEscan scanMAX competition binding, DNA-tagged kinases, qPCR read-out, percent control at 300 nM
ERK3 = biological target: T1, ERK3 (Homo sapiens, UniProt Q16659)
T1 construct: gene MAPK6

DYRK1B = DYRK1B (Homo sapiens, UniProt Q9Y463)
TYRO3 = biological target: T2, TYRO3 (Homo sapiens, UniProt Q06418)
T2 sequence (Q06418 1-890): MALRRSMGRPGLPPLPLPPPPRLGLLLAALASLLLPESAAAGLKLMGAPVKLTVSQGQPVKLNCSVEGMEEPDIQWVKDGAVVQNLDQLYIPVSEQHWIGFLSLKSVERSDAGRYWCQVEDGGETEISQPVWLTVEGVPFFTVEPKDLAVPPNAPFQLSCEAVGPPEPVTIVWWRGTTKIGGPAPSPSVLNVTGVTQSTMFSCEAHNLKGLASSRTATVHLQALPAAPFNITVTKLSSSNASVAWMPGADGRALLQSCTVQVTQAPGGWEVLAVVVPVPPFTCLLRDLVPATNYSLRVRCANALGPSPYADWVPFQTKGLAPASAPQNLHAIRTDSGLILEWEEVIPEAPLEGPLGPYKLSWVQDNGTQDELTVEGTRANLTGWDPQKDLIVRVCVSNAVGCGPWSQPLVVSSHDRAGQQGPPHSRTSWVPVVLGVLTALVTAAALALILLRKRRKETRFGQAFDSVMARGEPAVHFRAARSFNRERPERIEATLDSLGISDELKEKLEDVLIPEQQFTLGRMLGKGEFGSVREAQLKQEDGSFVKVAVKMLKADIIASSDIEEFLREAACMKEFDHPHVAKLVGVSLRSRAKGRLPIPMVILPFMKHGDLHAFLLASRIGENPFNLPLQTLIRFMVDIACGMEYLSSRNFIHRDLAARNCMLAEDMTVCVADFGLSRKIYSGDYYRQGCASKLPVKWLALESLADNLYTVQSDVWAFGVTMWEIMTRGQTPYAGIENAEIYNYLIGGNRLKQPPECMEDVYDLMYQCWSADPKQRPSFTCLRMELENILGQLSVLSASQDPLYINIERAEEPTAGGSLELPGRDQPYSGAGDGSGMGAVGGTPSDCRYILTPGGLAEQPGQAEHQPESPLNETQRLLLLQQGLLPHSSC

EGFR = EGFR (Homo sapiens, UniProt P00533)
EGFR, sequence (P00533 whole entry): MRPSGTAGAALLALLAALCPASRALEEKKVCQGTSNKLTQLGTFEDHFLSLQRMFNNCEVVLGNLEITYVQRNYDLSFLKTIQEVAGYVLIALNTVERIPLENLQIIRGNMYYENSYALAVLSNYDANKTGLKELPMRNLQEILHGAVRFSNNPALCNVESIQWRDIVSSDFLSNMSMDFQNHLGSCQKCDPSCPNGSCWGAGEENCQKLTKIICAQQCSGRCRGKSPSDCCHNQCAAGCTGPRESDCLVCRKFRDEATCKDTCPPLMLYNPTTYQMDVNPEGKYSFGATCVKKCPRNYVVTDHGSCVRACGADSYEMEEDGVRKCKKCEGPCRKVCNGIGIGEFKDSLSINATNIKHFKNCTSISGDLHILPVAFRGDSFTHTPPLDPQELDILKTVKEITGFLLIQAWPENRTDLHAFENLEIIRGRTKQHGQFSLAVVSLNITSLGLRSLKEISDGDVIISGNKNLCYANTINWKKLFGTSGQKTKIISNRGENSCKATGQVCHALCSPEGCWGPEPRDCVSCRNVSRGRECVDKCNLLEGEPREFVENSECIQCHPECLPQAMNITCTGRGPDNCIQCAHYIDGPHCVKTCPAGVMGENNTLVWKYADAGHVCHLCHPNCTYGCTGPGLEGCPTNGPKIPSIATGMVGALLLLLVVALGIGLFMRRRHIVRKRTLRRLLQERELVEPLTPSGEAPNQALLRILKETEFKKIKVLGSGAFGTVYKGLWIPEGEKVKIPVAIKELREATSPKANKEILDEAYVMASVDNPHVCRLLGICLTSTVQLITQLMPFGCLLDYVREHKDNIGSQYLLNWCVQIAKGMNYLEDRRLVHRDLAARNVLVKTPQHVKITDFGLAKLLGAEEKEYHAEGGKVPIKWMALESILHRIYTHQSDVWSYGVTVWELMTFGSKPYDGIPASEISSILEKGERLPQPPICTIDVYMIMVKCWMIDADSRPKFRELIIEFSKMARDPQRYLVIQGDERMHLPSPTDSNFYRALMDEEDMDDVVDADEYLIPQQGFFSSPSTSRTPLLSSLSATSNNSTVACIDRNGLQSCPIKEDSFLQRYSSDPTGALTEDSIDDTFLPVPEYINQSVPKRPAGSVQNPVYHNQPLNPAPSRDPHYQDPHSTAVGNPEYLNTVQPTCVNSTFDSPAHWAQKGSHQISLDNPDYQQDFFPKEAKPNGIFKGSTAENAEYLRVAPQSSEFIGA

GAK = biological target: T3, GAK (Homo sapiens, UniProt O14976)
T3 sequence (O14976 1-1311): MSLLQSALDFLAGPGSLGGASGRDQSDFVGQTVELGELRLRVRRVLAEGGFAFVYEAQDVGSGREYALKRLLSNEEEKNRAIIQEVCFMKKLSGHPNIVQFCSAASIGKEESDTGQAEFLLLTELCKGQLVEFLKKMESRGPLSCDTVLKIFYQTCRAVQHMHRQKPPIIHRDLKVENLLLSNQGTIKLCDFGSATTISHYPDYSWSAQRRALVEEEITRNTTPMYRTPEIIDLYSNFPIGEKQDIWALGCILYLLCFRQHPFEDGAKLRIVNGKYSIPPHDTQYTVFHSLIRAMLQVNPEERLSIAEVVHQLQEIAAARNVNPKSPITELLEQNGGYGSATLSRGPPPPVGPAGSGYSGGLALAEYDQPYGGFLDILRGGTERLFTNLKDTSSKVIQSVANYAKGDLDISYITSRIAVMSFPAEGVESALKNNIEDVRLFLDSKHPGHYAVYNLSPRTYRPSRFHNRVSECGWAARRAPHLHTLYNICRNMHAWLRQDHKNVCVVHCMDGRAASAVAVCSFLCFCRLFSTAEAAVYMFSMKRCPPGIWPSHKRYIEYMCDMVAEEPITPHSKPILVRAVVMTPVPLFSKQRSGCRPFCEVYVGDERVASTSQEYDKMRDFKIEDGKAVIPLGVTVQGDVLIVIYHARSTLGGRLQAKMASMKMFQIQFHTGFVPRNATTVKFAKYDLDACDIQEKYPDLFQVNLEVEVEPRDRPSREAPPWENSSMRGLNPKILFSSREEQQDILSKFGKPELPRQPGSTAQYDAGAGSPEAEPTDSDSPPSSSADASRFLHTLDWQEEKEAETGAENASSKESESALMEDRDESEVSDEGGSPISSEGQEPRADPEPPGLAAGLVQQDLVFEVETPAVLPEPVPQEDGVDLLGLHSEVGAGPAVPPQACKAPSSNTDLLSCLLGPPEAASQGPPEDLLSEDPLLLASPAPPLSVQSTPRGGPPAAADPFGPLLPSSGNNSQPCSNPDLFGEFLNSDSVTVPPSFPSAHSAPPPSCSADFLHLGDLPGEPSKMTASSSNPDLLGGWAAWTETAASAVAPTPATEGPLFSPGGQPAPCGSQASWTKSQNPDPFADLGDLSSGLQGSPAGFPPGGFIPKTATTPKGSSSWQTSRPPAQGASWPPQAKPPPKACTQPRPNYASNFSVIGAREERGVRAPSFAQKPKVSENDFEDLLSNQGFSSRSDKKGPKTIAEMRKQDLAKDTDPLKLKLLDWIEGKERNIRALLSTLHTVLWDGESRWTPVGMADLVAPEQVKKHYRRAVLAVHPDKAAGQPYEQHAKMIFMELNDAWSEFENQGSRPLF

[1] = biological target: EGFR(L747-S752del, P753S) (Homo sapiens, UniProt P00533, DEL747-752/P753S)
EGFR(L747-S752del, P753S), sequence (P00533 with tags, fused parts or gaps DEL747-752/P753S): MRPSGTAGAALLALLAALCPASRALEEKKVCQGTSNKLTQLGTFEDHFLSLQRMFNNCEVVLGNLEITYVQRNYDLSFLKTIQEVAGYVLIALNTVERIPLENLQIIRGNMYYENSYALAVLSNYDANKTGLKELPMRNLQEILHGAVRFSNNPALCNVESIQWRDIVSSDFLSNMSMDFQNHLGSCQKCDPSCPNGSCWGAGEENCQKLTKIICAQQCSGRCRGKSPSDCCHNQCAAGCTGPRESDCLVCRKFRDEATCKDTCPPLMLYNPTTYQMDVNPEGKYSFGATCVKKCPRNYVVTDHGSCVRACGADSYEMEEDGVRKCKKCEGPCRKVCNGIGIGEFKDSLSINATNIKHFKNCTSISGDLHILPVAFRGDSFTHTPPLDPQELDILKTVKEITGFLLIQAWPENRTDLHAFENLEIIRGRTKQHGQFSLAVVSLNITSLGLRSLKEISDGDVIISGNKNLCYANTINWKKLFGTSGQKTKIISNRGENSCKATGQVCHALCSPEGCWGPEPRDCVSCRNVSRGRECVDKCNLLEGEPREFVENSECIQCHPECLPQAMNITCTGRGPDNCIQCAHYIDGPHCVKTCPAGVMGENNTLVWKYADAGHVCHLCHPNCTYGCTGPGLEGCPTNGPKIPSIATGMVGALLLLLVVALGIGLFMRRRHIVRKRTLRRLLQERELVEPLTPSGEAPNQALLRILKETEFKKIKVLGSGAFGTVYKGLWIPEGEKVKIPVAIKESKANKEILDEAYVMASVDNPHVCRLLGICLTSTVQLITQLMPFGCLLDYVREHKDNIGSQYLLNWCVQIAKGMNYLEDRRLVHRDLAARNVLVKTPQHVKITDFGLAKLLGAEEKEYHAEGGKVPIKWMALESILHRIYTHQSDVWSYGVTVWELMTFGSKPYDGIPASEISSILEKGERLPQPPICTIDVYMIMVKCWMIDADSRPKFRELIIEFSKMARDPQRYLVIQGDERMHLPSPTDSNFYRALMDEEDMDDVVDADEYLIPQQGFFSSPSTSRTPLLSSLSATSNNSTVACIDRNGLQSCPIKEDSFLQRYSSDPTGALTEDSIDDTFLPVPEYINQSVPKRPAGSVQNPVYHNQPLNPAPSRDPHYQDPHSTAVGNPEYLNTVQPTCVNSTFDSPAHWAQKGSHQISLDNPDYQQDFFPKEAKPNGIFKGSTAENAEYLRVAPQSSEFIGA

STK33 = STK33 (Homo sapiens, UniProt Q9BYT3)
STK33, sequence (Q9BYT3 whole entry): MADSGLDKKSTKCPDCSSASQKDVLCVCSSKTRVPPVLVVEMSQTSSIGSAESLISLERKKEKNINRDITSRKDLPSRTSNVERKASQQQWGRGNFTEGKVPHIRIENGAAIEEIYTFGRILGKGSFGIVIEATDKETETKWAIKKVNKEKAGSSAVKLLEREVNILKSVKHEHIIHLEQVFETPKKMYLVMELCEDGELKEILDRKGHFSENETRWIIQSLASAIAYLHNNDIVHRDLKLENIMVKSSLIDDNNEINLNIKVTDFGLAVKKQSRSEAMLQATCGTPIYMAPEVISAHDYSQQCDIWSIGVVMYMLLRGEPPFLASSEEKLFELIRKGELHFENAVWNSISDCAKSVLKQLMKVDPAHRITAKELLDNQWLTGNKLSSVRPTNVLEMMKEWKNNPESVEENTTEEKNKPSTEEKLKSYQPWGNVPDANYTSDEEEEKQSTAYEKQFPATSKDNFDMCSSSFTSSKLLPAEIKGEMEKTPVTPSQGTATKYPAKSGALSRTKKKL

PLK3 = PLK3 (Homo sapiens, UniProt Q9H4B4)
PLK3, sequence (Q9H4B4 whole entry): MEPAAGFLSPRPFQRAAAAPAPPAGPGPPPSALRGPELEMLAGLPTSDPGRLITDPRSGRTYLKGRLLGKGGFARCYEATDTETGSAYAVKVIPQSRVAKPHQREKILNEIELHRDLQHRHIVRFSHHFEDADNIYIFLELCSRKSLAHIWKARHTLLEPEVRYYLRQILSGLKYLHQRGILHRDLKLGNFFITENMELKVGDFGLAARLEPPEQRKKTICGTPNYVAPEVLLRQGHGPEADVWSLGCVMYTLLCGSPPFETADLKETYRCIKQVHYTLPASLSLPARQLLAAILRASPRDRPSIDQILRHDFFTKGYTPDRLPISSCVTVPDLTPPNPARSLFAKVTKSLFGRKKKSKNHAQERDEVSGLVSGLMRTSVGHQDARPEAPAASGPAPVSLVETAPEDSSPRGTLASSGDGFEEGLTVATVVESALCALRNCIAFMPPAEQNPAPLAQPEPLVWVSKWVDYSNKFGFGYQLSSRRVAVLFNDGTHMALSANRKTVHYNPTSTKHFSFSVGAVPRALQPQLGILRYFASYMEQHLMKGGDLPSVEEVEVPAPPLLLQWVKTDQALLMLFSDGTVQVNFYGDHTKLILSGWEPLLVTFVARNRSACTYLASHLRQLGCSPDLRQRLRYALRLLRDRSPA

[2] = read-out: Percent control / Tirabrutinib
[3] = read-out: Percent control / Zanubrutinib
[4] = read-out: Percent control / Acalabrutinib
[5] = read-out: Percent control / Ibrutinib

T1 sequence (Q16659 whole entry): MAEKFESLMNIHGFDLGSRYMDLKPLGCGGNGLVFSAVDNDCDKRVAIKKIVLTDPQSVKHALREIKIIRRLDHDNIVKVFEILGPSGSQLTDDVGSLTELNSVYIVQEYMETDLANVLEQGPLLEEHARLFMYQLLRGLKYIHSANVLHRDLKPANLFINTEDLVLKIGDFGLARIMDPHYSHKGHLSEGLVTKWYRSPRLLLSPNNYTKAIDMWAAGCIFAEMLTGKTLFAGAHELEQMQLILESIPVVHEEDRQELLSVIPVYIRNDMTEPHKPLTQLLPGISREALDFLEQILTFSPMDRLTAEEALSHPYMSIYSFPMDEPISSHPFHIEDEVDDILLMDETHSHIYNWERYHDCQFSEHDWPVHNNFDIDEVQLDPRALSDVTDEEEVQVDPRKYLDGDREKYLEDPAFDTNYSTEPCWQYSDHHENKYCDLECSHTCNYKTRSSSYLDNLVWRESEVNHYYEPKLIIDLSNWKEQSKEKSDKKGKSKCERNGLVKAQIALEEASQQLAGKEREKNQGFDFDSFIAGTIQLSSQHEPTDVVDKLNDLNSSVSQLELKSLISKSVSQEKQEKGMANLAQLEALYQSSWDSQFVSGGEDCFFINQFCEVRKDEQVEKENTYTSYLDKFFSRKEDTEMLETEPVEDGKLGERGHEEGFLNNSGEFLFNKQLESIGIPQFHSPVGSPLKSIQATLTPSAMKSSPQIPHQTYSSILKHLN
DYRK1B, sequence (Q9Y463 whole entry): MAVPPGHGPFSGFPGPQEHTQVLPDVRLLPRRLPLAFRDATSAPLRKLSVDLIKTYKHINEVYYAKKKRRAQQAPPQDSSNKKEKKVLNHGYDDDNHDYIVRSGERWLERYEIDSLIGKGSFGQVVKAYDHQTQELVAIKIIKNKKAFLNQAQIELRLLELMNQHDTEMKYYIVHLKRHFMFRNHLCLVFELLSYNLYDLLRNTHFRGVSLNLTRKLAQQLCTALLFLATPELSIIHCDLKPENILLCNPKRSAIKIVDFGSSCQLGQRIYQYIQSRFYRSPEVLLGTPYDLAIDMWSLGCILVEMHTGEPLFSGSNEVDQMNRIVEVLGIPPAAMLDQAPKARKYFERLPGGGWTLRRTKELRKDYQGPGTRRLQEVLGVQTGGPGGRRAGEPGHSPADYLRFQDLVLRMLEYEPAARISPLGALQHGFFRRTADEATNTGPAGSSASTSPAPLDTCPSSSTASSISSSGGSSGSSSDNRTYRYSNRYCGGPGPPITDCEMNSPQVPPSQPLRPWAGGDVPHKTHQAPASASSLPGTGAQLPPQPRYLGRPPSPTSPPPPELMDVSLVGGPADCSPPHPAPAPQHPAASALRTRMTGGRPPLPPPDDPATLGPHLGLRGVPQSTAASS

CC#CC(=O)N1CC[C@@H](n2c(=O)n(-c3ccc(Oc4ccccc4)cc3)c3c(N)ncnc32)C1 [Tirabrutinib]
remaining binding at 0.3 µM (ERK3; [2]): 90%
remaining binding at 0.3 µM (DYRK1B; [2]): 70%
remaining binding at 0.3 µM (TYRO3; [2]): 99%
remaining binding at 0.3 µM (EGFR; [2]): 100%
remaining binding at 0.3 µM (GAK; [2]): 95%
remaining binding at 0.3 µM [1, 2]: 88%

C=CC(=O)N1CCC([C@@H]2CCNc3c(C(N)=O)c(-c4ccc(Oc5ccccc5)cc4)nn32)CC1 [Zanubrutinib]
remaining binding at 0.3 µM (ERK3; [3]): 98%
remaining binding at 0.3 µM (DYRK1B; [3]): 71%
remaining binding at 0.3 µM (TYRO3; [3]): 80%
remaining binding at 0.3 µM (STK33; [3]): 93%
remaining binding at 0.3 µM (GAK; [3]): 87%
remaining binding at 0.3 µM (PLK3; [3]): 94%

CC#CC(=O)N1CCC[C@H]1c1nc(-c2ccc(C(=O)Nc3ccccn3)cc2)c2c(N)nccn12 [Acalabrutinib]
remaining binding at 0.3 µM (ERK3; [4]): 91%
remaining binding at 0.3 µM (DYRK1B; [4]): 72%
remaining binding at 0.3 µM (EGFR; [4]): 82%
remaining binding at 0.3 µM (STK33; [4]): 90%
remaining binding at 0.3 µM (GAK; [4]): 92%
remaining binding at 0.3 µM (PLK3; [4]): 91%
remaining binding at 0.3 µM [1, 4]: 99%

C=CC(=O)N1CCC[C@@H](n2nc(-c3ccc(Oc4ccccc4)cc3)c3c(N)ncnc32)C1 [Ibrutinib]
remaining binding at 0.3 µM (TYRO3; [5]): 61%
remaining binding at 0.3 µM (EGFR; [5]): 0.2%
remaining binding at 0.3 µM (STK33; [5]): 86%
remaining binding at 0.3 µM (PLK3; [5]): 94%
remaining binding at 0.3 µM [1, 5]: 12%
